{"source": "patent US20250213566A1", "about": "“PHARMACEUTICAL COMPOSITION FOR PREVENTING OR TREATING SKIN DISEASES CAUSED BY RADIATION IRRADIATION COMPRISING DARAPLADIB OR PHARMACEUTICALLY ACCEPTABLE SALT THEREOF AS ACTIVE INGREDIENT” (KOREA INSTITUTE OF RADIOLOGICAL & MEDICAL SCIENCES, priority 2022, published 2025)", "key": {"SKH-1 hairless mice [1]": {"test_system": "SKH-1 hairless mice", "experiment": "Skin moisture content (Corneometer), moisture loss (Tewameter) and skin pH after irradiation", "type": "in vivo", "settings": "40 Gy local irradiation; day 20 after irradiation; skin pH meter; FIG. 4", "description": "In order to identify the effect of darapladib in improving radiation-induced skin damage, SKH-1 hairless mice, which has the most similar characteristics to the human skin layer, immune system, and vascular system, was used, and for the irradiated group, local irradiation was performed on the skin in a total of 40 Gy by irradiating two times by 20 Gy at intervals of 5 days. Darapladib was used to suppress radiation-induced skin damage, and subcutaneous injections were given at different concentrations (20 mg/kg and 40 mg/kg). In addition, in order to quantitatively observe the effect of darapladib in inhibiting radiation-induced skin damage, the moisture content, moisture loss, and pH level of the skin were measured on day 20 after irradiation. The moisture content in the skin was measured using Corneometer (Corneometer CM825, CK electronic GmbH, Germany), the moisture loss by Tewameter (TM300, CK electronic GmbH, Germany), and the pH level of the skin by a skin pH meter (pH905, CK electronic GmbH, Germany)."}, "human fibroblasts": {"test_system": "human fibroblasts", "experiment": "TGF-β-induced differentiation from fibroblasts to myofibroblasts, immunofluorescence staining of collagen", "type": "cell-based", "settings": "TGF-β treated fibroblasts; darapladib 0.25 nM and 0.5 nM applied 1 hour before TGF-β; vs TGF-β treated group; FIG. 1", "description": "To identify the effect of darapladib on suppression of differentiation from fibroblasts to myofibroblasts, used was a transforming growth factor-beta (TGF-β), a growth factor that induces differentiation from human fibroblasts to myofibroblasts. Darapladib was applied to the medium at low concentration (0.25 nM) and high concentration (0.5 nM) respectively 1 hour before TGF-β treatment and then fixed with 4% formaldehyde in a live state in a single-layer culture of fibroblasts, and immunofluorescence staining of collagen was performed, followed by visualization by confocal microscopy."}, "α-SMA": {"test_system": "α-SMA", "experiment": "α-SMA expression in irradiated skin by IHC staining, immunofluorescence and Western blot", "type": "in vivo, mice", "settings": "FIG. 7", "description": "(§1) In order to identify the effect of darapladib in improving radiation-induced skin damage, SKH-1 hairless mice, which has the most similar characteristics to the human skin layer, immune system, and vascular system, was used, and for the irradiated group, local irradiation was performed on the skin in a total of 40 Gy by irradiating two times by 20 Gy at intervals of 5 days. Darapladib was used to suppress radiation-induced skin damage, and subcutaneous injections were given at different concentrations (20 mg/kg and 40 mg/kg)."}, "vimentin": {"test_system": "vimentin", "experiment": "Vimentin expression in irradiated skin by immunohistochemistry", "type": "in vivo, mice", "settings": "FIG. 8", "description": "as §1, with “mg/kg). In addition, to identify the effect of darapladib on vimentin, which is another marker of fibrosis and applicable to immune diseases, immunohistochemistry (IHC) method was applied to stain the surface of the skin.” for “mg/kg).”"}, "SKH-1 hairless mice [2]": {"test_system": "SKH-1 hairless mice", "experiment": "Radiation-induced skin damage in SKH-1 hairless mice, appearance of skin", "type": "in vivo", "settings": "day 20 after irradiation, FIG. 3", "description": "as §1"}, "collagen": {"test_system": "collagen", "experiment": "Masson's trichrome staining of irradiated skin (collagen deposition)", "type": "in vivo, mice", "settings": "day 20 after irradiation, IR/Dara group, FIG. 6", "description": "as §1"}, "SKH-1 hairless mice [3]": {"test_system": "SKH-1 hairless mice", "experiment": "Histological changes in irradiated skin, hematoxylin and eosin staining, Image J quantification of adipocytes", "type": "in vivo", "description": "In order to identify the effect of darapladib in improving radiation-induced skin damage, SKH-1 hairless mice, which has the most similar characteristics to the human skin layer, immune system, and vascular system, was used, and for the irradiated group, local irradiation was performed on the skin in a total of 40 Gy by irradiating two times by 20 Gy at intervals of 5 days. Darapladib was used to suppress radiation-induced skin damage, and subcutaneous injections were given at different concentrations (20 mg/kg and 40 mg/kg). In addition, in order to observe the histological changes in the skin, the extracted tissues were embedded by undergoing a paraffin infiltration process, a 4 μm thinned section was prepared to undergo deparaffinization and hydration followed by staining with hematoxylin and eosin, and then tissue damage, blood vessel damage, and changes in the epidermis, dermis, and adipocyte layer of skin tissue were observed using an optical microscope. In addition, to quantify the degree of skin damage, the area and number of granules in which adipocytes are present were calculated and statistically analyzed using the Image J program."}, "[4]": {"settings": "irradiated skin sections, H&E, Dara+IR group, FIG. 5A"}}, "data": [{"molecule": "CCN(CC)CCN(Cc1ccc(-c2ccc(C(F)(F)F)cc2)cc1)C(=O)Cn1c(SCc2ccc(F)cc2)nc(=O)c2c1CCC2", "note": "[darapladib]", "values": [{"measurement": "skin pH", "setting": "SKH-1 hairless mice [1]", "value": "remained slightly acidic"}, {"measurement": "expression of collagen", "setting": "human fibroblasts", "value": "decreased significantly"}, {"measurement": "expression of α-SMA", "setting": "α-SMA; IR/Dara group vs irradiated group", "value": "reduced expression of α-SMA compared to the irradiated group"}, {"measurement": "expression of α-SMA", "setting": "α-SMA; high concentration, 40 mg/kg", "value": "expression level similar to that of the control group"}, {"measurement": "vimentin expression", "setting": "vimentin; IR/Dara group", "value": "decreased"}, {"measurement": "vimentin expression", "setting": "vimentin; high concentration, 40 mg/kg", "value": "similarly to the control group"}, {"measurement": "fibrosis (chronic thickening of skin surface, red wounds, inflammation)", "setting": "SKH-1 hairless mice [2]; 40 Gy local irradiation (2 x 20 Gy), subcutaneous 20 mg/kg and 40 mg/kg, vs irradiated group", "value": "remarkably reduced"}, {"measurement": "recovery of irradiated skin", "setting": "SKH-1 hairless mice [2]; 40 Gy local irradiation, subcutaneous 40 mg/kg (high concentration)", "value": "recovery similar to that of the control group without irradiation"}, {"measurement": "collagen fiber or thickness of the skin layer", "setting": "collagen", "value": "restored to a level of the control group"}, {"measurement": "adipocyte granules", "setting": "SKH-1 hairless mice [3]; [4]", "value": "retained"}, {"measurement": "thickness of the epidermis and dermis of the skin", "setting": "SKH-1 hairless mice [3]; [4]", "value": "restored similar to the control group"}, {"measurement": "area of adipocytes", "setting": "SKH-1 hairless mice [3]; irradiated skin, Image J, FIGS. 5B and 5C", "value": "significantly recovered"}]}]}
